From ChEMBL document CHEMBL1138438, “Structural-activity relationship study of highly-functionalized imidazolines as potent inhibitors of nuclear transcription factor-kappaB mediated IL-6 production” (Bioorg Med Chem, 2009)

Experiments:
HeLa [1] = assay: Cell cycle arrest in human HeLa cells transfected with NFkappaB-Luc assessed as accumulation at diploid S phase at 20 uM after 8 hrs by using propidium iodide staining by FACS analysis; format: functional
HeLa [2] = assay: Cell cycle arrest in TNF-alpha-stimulated human HeLa cells transfected with NFkappaB-Luc assessed as accumulation at diploid stage at 5 uM after 8 hrs by using propidium iodide staining by FACS analysis; format: functional
HeLa [3] = assay: Cell cycle arrest in TNF-alpha-stimulated human HeLa cells transfected with NFkappaB-Luc assessed as accumulation at G2/G1 phase at 0.05 uM after 8 hrs by using propidium iodide staining by FACS analysis; format: functional
HeLa [4] = assay: Cell cycle arrest in human HeLa cells transfected with NFkappaB-Luc assessed as accumulation at diploid G1 phase at 20 uM after 8 hrs by using propidium iodide staining by FACS analysis; format: functional
HeLa [5] = assay: Cell cycle arrest in TNF-alpha-stimulated human HeLa cells transfected with NFkappaB-Luc assessed as accumulation at diploid stage at 0.1 uM after 8 hrs by using propidium iodide staining by FACS analysis; format: functional
HeLa [6] = assay: Cell cycle arrest in TNF-alpha-stimulated human HeLa cells transfected with NFkappaB-Luc assessed as accumulation at total S phase at 0.05 uM after 8 hrs by using propidium iodide staining by FACS analysis; format: functional
HeLa [7] = assay: Effect on cell cycle arrest in TNF-alpha-stimulated human HeLa cells transfected with NFkappaB-Luc assessed as cell aggregate level at 0.1 uM after 8 hrs by using propidium iodide staining by FACS analysis; format: functional
HeLa [8] = assay: Cell cycle arrest in TNF-alpha-stimulated human HeLa cells transfected with NFkappaB-Luc assessed as accumulation at diploid G1 phase at 0.05 uM after 8 hrs by using propidium iodide staining by FACS analysis; format: functional
HeLa [9] = assay: Cell cycle arrest in TNF-alpha-stimulated human HeLa cells transfected with NFkappaB-Luc assessed as accumulation at G2/G1 phase at 0.5 uM after 8 hrs by using propidium iodide staining by FACS analysis; format: functional
HeLa [10] = assay: Cell cycle arrest in TNF-alpha-stimulated human HeLa cells transfected with NFkappaB-Luc assessed as accumulation at diploid G2 phase at 20 uM after 8 hrs by using propidium iodide staining by FACS analysis; format: functional
HeLa [11] = assay: Cell cycle arrest in TNF-alpha-stimulated human HeLa cells transfected with NFkappaB-Luc assessed as accumulation at G2/G1 phase at 10 uM after 8 hrs by using propidium iodide staining by FACS analysis; format: functional
HeLa [12] = assay: Effect on cell cycle arrest in TNF-alpha-stimulated human HeLa cells transfected with NFkappaB-Luc assessed as total background cell aggregate and debris level at 0.5 uM after 8 hrs by using propidium iodide staining by FACS analysis; format: functional
HeLa [13] = assay: Effect on cell cycle arrest in TNF-alpha-stimulated human HeLa cells transfected with NFkappaB-Luc assessed as cell debris level at 10 uM after 8 hrs by using propidium iodide staining by FACS analysis; format: functional
HeLa [14] = assay: Cell cycle arrest in TNF-alpha-stimulated human HeLa cells transfected with NFkappaB-Luc assessed as accumulation at diploid G2 phase at 0.1 uM after 8 hrs by using propidium iodide staining by FACS analysis; format: functional
HeLa [15] = assay: Cell cycle arrest in TNF-alpha-stimulated human HeLa cells transfected with NFkappaB-Luc assessed as accumulation at diploid stage at 0.05 uM after 8 hrs by using propidium iodide staining by FACS analysis; format: functional
HeLa [16] = assay: Effect on cell cycle arrest in TNF-alpha-stimulated human HeLa cells transfected with NFkappaB-Luc assessed as cell aggregate level at 1 uM after 8 hrs by using propidium iodide staining by FACS analysis; format: functional
HeLa [17] = assay: Effect on cell cycle arrest in TNF-alpha-stimulated human HeLa cells transfected with NFkappaB-Luc assessed as total background cell aggregate and debris level at 10 uM after 8 hrs by using propidium iodide staining by FACS analysis; format: functional
HeLa [18] = assay: Cell cycle arrest in TNF-alpha-stimulated human HeLa cells transfected with NFkappaB-Luc assessed as accumulation at diploid G1 phase at 20 uM after 8 hrs by using propidium iodide staining by FACS analysis; format: functional
HeLa [19] = assay: Effect on cell cycle arrest in TNF-alpha-stimulated human HeLa cells transfected with NFkappaB-Luc assessed as cell aggregate level at 0.5 uM after 8 hrs by using propidium iodide staining by FACS analysis; format: functional
[20] = Cytotoxicity against human 184B5 cells after 24 hrs by MTS assay; format: cell-based
[21] = Cytotoxicity against IL-1-beta-stimulated human whole blood lymphocytes assessed as survival cell count in millions at 1 uM after 24 hrs by trypan blue staining-based hemocytometry

Question: With `CCOC(=O)[C@]1(c2ccccc2)N=C(c2ccccc2)N(Cc2ccccc2)[C@@H]1c1ccccc1` (racemic) as the compound, how does the Activity (HeLa [1]) read?
Answer: The Activity was 21.48%.

Question: What about the Activity (HeLa [2]) of the same compound?
Answer: The Activity was 100%.

Question: And the Activity (HeLa [3])?
Answer: Its Activity is 1.91%.

Question: What about the Activity (HeLa [4]) of the same compound?
Answer: The Activity was 65.19%.

Question: And the Activity (HeLa [5])?
Answer: Its Activity is 100%.

Question: What about the Activity (HeLa [6]) of the same compound?
Answer: Its Activity is 22.8%.

Question: And the Activity (HeLa [7])?
Answer: The Activity was 0%.

Question: And the Activity (HeLa [8])?
Answer: Its Activity is 64.3%.

Question: What about the Activity (HeLa [9]) of the same compound?
Answer: The Activity was 1.91%.

Question: And the Activity (HeLa [10])?
Answer: Its Activity is 14.75%.

Question: What about the Activity (HeLa [11]) of the same compound?
Answer: The Activity was 1.91%.

Question: What about the Activity (HeLa [12]) of the same compound?
Answer: Its Activity is 1.29%.

Question: What about the Activity (HeLa [13]) of the same compound?
Answer: The Activity was 15.28%.

Question: What about the Activity (HeLa [14]) of the same compound?
Answer: Its Activity is 14.03%.

Question: What about the Activity (HeLa [15]) of the same compound?
Answer: Its Activity is 100%.

Question: And the Activity (HeLa [16])?
Answer: The Activity was 0%.

Question: What about the Activity (HeLa [17]) of the same compound?
Answer: Its Activity is 6.27%.

Question: And the Activity (HeLa [18])?
Answer: The Activity was 65.96%.

Question: And the Activity (HeLa [19])?
Answer: The Activity was 0%.

Question: What about the CC50 at 24 h [20] of the same compound?
Answer: Its CC50 at 24 h is > 10 µM.

Question: What about the Activity [21] of the same compound?
Answer: Its Activity is 1.18 mL⁻¹.
